# Laboratory results taken from US11564899B2, “Therapy for transthyretin-associated amyloidosis” (SOM INNOVATION BIOTECH, S.L., priority 2011, dated 2023).
# Key:
# Format in all cases: biochemical
# [1] = molecular target: T1, Recombinant Y78F TTR protein (Homo sapiens, UniProt P02766, Y98F); assay: Kinetic turbidity assay of TTR fibril formation; details: Y78F TTR 0.4 mg/mL, RA=100*B/(A+B)
# T1 construct: made in house
# Protocol: Stocks of compounds assayed as inhibitors were dissolved in DMSO (spectrophotometry grade from Sigma) at 1.5 mM concentration. Working solutions were prepared by diluting the stock solution 1:4 in H2O/DMSO (2:1). In all cases, DMSO concentration was adjusted to 5% (v/v) in the final reaction assay mixture.
# The assay comprises two stages, one stage where the Y78F protein is incubated together with the inhibitor during 30 minutes, and a second stage where fibril formation is induced by a change in pH and absorbance is measured along 1.5 h. Briefly, the assay was performed as follows:
# First, the following solutions were prepared: Protein Y78F stock: 4 mg/mL in 20 mM phosphate, 100 mM KCl, pH 7.6. Incubation buffer: 10 mM phosphate, 100 mM KCl, 1 mM EDTA, pH 7.6. Dilution buffer: 400 mM sodium acetate, 100 mM KCl, 1 mM EDTA, pH 4.2.
# Incubation buffer was then added up to a volume of 100 μL. The plate was incubated at 37° C. in a thermostated microplate reader with orbital shaking 15 s every minute for 30 min. A 100 μL portion of dilution buffer was dispensed to each well, and the mixture was incubated at 37° C. with shaking (15 s every min) in the microplate reader. Absorbance at 340 nm was monitored for 1.5 h at 1 min intervals. Data were collected and analyzed using Microsoft Excel software. All assays were done in duplicate.
# After following the general procedure indicated above, time-course curves were obtained, from which the initial rates of fibril formation (V0) were calculated as the slopes of the linear increase of absorbance. […] Data were fitted to equation (1): V0=A+B*e^−C[I] (1), where V0 is the initial rate of fibril formation (in absorbance units per hour, Abs*h^−1), and [I] is the concentration of the inhibitor (μM). Adjustable parameters are A (Abs*h^−1), residual aggregation rate at high concentration of inhibitor; B (Abs*h^−1), amplitude or maximum decrease of initial rate of fibril formation; and C (μM^−1), the exponential constant. A+B is equal to the initial rate of fibril formation under the assay conditions in the absence of inhibitor. […]
# [2] = molecular target: T2, Recombinant V122I TTR protein (Homo sapiens, UniProt P02766, V142I); assay: End-point turbidity assay (72 h) with V122I TTR; details: V122I 0.4 mg/mL
# T2 construct: made in house
# Protocol: Recombinant V122I TTR protein, which is an amyloidogenic variation of human TTR associated with Familial Amyloid Cardiomyopathy (FAC), was produced by following the same procedure described for the Y78F variant used in Example 1. Plasmid DNA expressing the V122I mutant was prepared by site-directed mutagenesis as reported for Y78F in Dolado et al (supra). but using the following primers: 5′-[…]-3′ and 5′-[…]-3′.
# This assay is used for TTR variants with lower amyloidegenicity than the Y78F variant when the kinetic turbidity assay is not sensitive enough for accurate measurements. The procedure followed to test the inhibitors by this end-point assay at 72 h is reported in Dolado et al, (supra). V122I TTR was incubated with the inhibitor under the same conditions described above for the kinetic turbidity assay (Example 1), using V122I protein at a concentration of 0.4 mg/mL and three different concentrations of inhibitor: […], corresponding to 0.5×[protein], 1×[protein], and 3×[protein]. After acid induction (addition of dilution buffer), samples were incubated without shaking for 72 h at 37° C. and then homogenized by mixing to resuspend any fibrils present. Turbidity was measured at 340 nm and normalized to amyloidogenesis in the absence of inhibitor.
# The inhibitory potency of the tested compounds was evaluated as the percentage of absorvance reduction of the inhibitor-containing samples when compared with the inhibitor-free control sample.
# % Fibril reduction=100×(1-turbidity sample/turbidity blank), where turbidity sample is the turbidity measured in the presence of inhibitor, and turbidity blank is that in the absence of inhibitor.
# [3] = tested on: plasma TTR tetramer (controls and TTR V30M carriers); details: human plasma (controls and V30M carriers pooled), 4 M urea IEF, relative to non-treated plasma of same donor
# Protocol: The preparations were subjected to native PAGE (5% acrylamide) and the gel band containing TTR was excised and applied to an IEF gel (5% acrylamide). IEF was carried out in semi-denaturing conditions (4 M urea), containing 5% (v/v) ampholytes pH 4-6.5 (GE Healthcare), at 1200 V for 6 hours. Proteins were stained with Coomassie Blue, the gels were scanned and subjected to densitometry using the ImageQuant program (HP Scanjet 4470c, Hewlett Packard). […] A total of 12 plasma samples (5 controls and 7 carriers TTR V30M) were analyzed in 3 IEF gels. For each treatment condition, a minimum of 4 samples from different donors were processed. The ratio of TTR tetramer over Total TTR (TTR tetramer+monomer) was calculated for each plasma sample and represented in FIG. 2.
# The increase of the tetramer/total TTR ratio induced by the treatment with test compounds was pooled for all samples and represented in Table 4 as % of stabilization. These values were calculated after normalizing the tetramer/total TTR ratio obtained for each sample, with the ratio obtained for the non-treated plasma of the corresponding individual donor as described below: % stabilization=100×((ratio sample−ratio nt)/ratio nt). Where “ratio sample” is tetramer/total TTR ratio in the presence of compound; and “ratio nt” is tetramer/total TTR ratio of non-treated plasma from same donor.
# [4] = inhibitor 0.5x[protein] (3.6 microM)
# [5] = inhibitor 1x[protein] (7.2 microM)
# [6] = inhibitor 3x[protein] (21.8 microM)
Compound,RA (%) percentage of amyloidosis reduction (reduction of fibril formation rate at high inhibitor concentration) [1] [%],"% Fibril Reduction [2, 4] [%]","% Fibril Reduction [2, 5] [%]","% Fibril Reduction [2, 6] [%]",% stabilization (average +/− sem) of TTR tetramer [3]
"Cc1ccc(C(=O)c2cc(O)c(O)c([N+](=O)[O-])c2)cc1 [Tolcapone, 3,4-dihydroxy-4′-methyl-5-nitrobenzophenone]",85.8,79.3,84.3,100.0,29.9 +/− 7.64%
O=C(O)c1cc(-c2ccc(F)cc2F)cc(I)c1O [Iododiflunisal],99.8,83.2,85.0,88.2,
"O=C(O)c1ccc2nc(-c3cc(Cl)cc(Cl)c3)oc2c1 [Tafamidis, 2-(3,5-dichlorophenyl)-1,3-benzoxazole-6-carboxylic acid]",99,,,,16.4 +/− 5.49%
